Data from patent publication US8921576B2, “Spiroindoline compound, and medicinal agent comprising same” (Kowa Company, Ltd., priority 2011, dated 2014).

Target: T1, GST-GK derived from human liver GK (Homo sapiens, UniProt P35557)
T1 construct: made in house; host or cells: Escherichia coli DH5α
T1 sequence (P35557 1-466 isoform P35557-2): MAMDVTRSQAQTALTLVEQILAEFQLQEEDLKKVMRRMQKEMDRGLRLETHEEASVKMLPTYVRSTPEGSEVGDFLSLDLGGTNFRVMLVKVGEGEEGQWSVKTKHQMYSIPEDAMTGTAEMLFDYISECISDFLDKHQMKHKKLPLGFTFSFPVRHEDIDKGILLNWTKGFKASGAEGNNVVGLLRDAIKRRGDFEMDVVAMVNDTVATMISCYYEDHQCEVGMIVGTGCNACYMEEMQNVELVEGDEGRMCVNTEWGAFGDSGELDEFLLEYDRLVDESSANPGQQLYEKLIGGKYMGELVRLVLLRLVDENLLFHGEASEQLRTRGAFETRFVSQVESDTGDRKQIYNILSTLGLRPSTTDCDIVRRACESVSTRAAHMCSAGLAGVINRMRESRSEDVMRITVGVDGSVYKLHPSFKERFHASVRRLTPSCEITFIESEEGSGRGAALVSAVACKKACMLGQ
Experiment: In vitro GK activity measurement test (G6PDH-coupled, OD340)
Assay type: biochemical
Details: test compound 1 μmol/L; glucose 2.5 mmol/L; 25° C.; OD340 slope with compound / without compound; read-out: GK activation rate (%)
Excerpt: cDNA (GenBank Accession No. NM_033507, human glucokinase, variant 2) encoding human liver-type GK polypeptide was cloned by performing a polymerase chain reaction (hereinafter referred to as “PCR”) using a human liver cDNA library (Human liver QUICK-Clone cDNA, TAKARA BIO INC.), and the thus cloned cDNA was then introduced into an expression vector (pGEX-3X, GE Healthcare Japan) for glutathione S transferase (hereinafter referred to as GST) fusion protein expression. The resulting vector was introduced into Escherichia coli (Competent high DH5α, Toyobo Co., Ltd.), and the transformed Escherichia coli was then cultured at 37° C. Thereafter, Isopropyl β-D-1-thiogalactopyranoside (final concentration: 1 mmol/L, Sigma Aldrich Japan) was added to the culture, and the obtained mixture was then cultured at 30° C. for 3 hours. Thereafter, a cell mass was recovered. The recovered cell mass was subjected to freezing-and-thawing, and the resulting cell mass was then suspended in phosphate buffer with final concentration of 1% Triton X-100, followed by disintegration with an ultrasonic disruptor. The homogenate was centrifuged at 33,200 rpm at 4° C. for 1 hour. Thereafter, the supernatant was recovered, and a GST-GK fusion protein was then purified using a glutathione column (GSTrap FF, GE Healthcare Japan). The obtained GST-GK fusion protein was divided into some portions each having a small volume, and the thus divided proteins were then preserved at −80° C.
A GK assay method was carried out at 25° C. at a final incubation volume of 100 μL in a flat-bottom 96-well assay plate. An assay buffer comprised 25 mmol/L Hepes buffer (pH 7.1), 25 mmol/L KCl, 2.5 mmol/L or 10 mmol/L D-glucose, 5 mmol/L ATP, 1 mmol/L nicotinamide adenine dinucleotide phosphate (abbreviated as NADP), 2 mmol/L MgCl2, 1 mmol/L dithiothreitol (DTT), 2 units/mL glucose-6 phosphate dehydrogenase (G6PDH), and 1 μg/mL GST-GK derived from human liver GK. ATP, G6PDH, and NADP were purchased from Roche Diagnostics. […] The thus mixed solution was preincubated in an incubator in which the temperature was controlled at 25° C. for 15 minutes. Subsequently, the reaction was initiated by adding 10 μL of the GST-GK solution to the reaction mixture, resulting in a final concentration of 0.1 μg/mL. After initiation of the reaction, an increase in the optical concentration at 340 nm (OD340) was monitored with a microplate spectrophotometer (Varsamax, Molecular Devices Japan K.K.) every 10 seconds over an incubation period of 10 minutes. An inclination of the OD340 increase was defined as raw data. The GK activating rate was indicated as a numerical value obtained from the expression: (Inclination of OD340 increase by addition of the test compound)/(inclination of OD340 increase without addition of the test compound). The results of the GK activating rate obtained at a test compound concentration of 1 μmol/L under the condition of a glucose concentration of 2.5 mmol/L are shown in the following table.

Row | activity at 1 µM | Structure (SMILES)
1 | 633% | CNC(=S)N1CCC2(C1)CN(C(=O)Nc1ncc(Cl)s1)c1ccc(Cl)cc12 (stereo not shown) [Example 449, 5-Chloro-N-(5-chlorothiazol-2-yl)-1′-(methylcarbamothioyl)spiro[indoline-3,3′-pyrrolidine]-1-carboxamide]
2 | 437% | CNC(=O)N1CC[C@@]2(C1)CN(C(=O)Nc1ncc(F)s1)c1ccc(Cl)cc12 [Example 374, (R)-5-chloro-N1-(5-fluorothiazol-2-yl)-N1′-methylspiro[indoline-3,3′-pyrrolidine]-1,1′-dicarboxamide]
3 | 499% | CNC(=O)C(=O)N1CCC2(C1)CN(C(=O)Nc1ncc(Cl)s1)c1ccc(Cl)cc12 (stereo not shown) [Example 46, 5-chloro-N-(5-chlorothiazol-2-yl)-1′-(2-(methylamino)-2-oxoacetyl)spiro[indoline-3,3′-pyrrolidine]-1-carboxamide]
4 | 446% | O=C(CCNC(=O)N1CCC2(C1)CN(C(=O)Nc1ncc(Cl)s1)c1ccc(Cl)cc12)N1CCC1 (stereo not shown) [Example 466, N1′-(3-(Azetidin-1-yl)-3-oxopropyl)-5-chloro-N1-(5-chlorothiazol-2-yl)spiro[indoline-3,3′-pyrrolidine]-1,1′-dicarboxamide]
5 | 578% | COc1ccc2nc(NC(=O)N3CC4(CCN(C(C)=O)C4)c4cc(S(=O)(=O)NCc5ccco5)ccc43)sc2n1 (stereo not shown) [Example 271, 1′-Acetyl-5-(N-(furan-2-ylmethyl)sulfamoyl)-N-(5-methoxythiazolo[5,4-b]pyridin-2-yl)spiro[indoline-3,3′-pyrrolidine]-1-carboxamide]
6 | 611% | COC(=O)N1CC[C@@]2(C1)CN(C(=O)Nc1nc3ccc(OC)nc3s1)c1ccc(S(=O)(=O)N(CCN(C)C)Cc3ccccc3)cc12 [Example 347, (S)-methyl 5-(N-benzyl-N-(2-(dimethylamino)ethyl)sulfamoyl)-1-((5-methoxythiazolo[5,4-b]pyridin-2-yl)carbamoyl)spiro[indoline-3,3′-pyrrolidine]-1′-carboxylate]
7 | 416% | COc1cnc(NC(=O)N2CC3(CCN(C(=O)CO)C3)c3cc(C(F)(F)F)ccc32)s1 (stereo not shown) [Example 441, 1′-(2-Hydroxyacetyl)-N-(5-methoxythiazol-2-yl)-5-(trifluoromethyl)spiro[indoline-3,3′-pyrrolidine]-1-carboxamide]
8 | 532% | COC(=O)N1CCC2(C1)CN(C(=O)Nc1ncc(SCCCC(=O)NO)s1)c1ccc(Cl)cc12 (stereo not shown) [Example 169, methyl 5-chloro-1-((5-((4-(hydroxyamino)-4-oxobutyl)thio)thiazol-2-yl)carbamoyl)spiro[indoline-3,3′-pyrrolidine]-1′-carboxylate]
9 | 500% | CC(=O)N1CC(CNC(=O)N2CCC3(C2)CN(C(=O)Nc2ncc(Cl)s2)c2ccc(C(F)(F)F)cc23)C1 (stereo not shown) [Example 445, N1′-((1-acetylazetidin-3-yl)methyl)-N1-(5-chlorothiazol-2-yl)-5-(trifluoromethyl)spiro[indoline-3,3′-pyrrolidine]-1,1′-dicarboxamide]
10 | 526% | O=C(NCCCO)N1CCC2(C1)CN(C(=O)Nc1ncc(Cl)s1)c1ccc(Cl)cc12 (stereo not shown) [Example 464, 5-chloro-N1-(5-chlorothiazol-2-yl)-N1′-(3-hydroxypropyl)spiro[indoline-3,3′-pyrrolidine]-1,1′-dicarboxamide]
11 | 456% | CNC(=O)CCCNC(=O)N1CCC2(C1)CN(C(=O)Nc1ncc(Cl)s1)c1ccc(Cl)cc12 (stereo not shown) [Example 472, 5-Chloro-N1-(5-chlorothiazol-2-yl)-N1′-(4-(methylamino)-4-oxobutyl)spiro[indoline-3,3′-pyrrolidine]-1,1′-dicarboxamide]
12 | 537% | O=C(NCCO)N1CCC2(C1)CN(C(=O)Nc1ncc(Cl)s1)c1ccc(Cl)cc12 (stereo not shown) [Example 459, 5-chloro-N1-(5-chlorothiazol-2-yl)-N1′-(2-hydroxyethyl)spiro[indoline-3,3′-pyrrolidine]-1,1′-dicarboxamide]
13 | 535% | CCOC(=O)CCCc1ccc2c(c1)C1(CCN(C(=O)NC)C1)CN2C(=O)Nc1ncc(Cl)s1 (stereo not shown) [Example 419, ethyl 4-(1-((5-chlorothiazol-2-yl)carbamoyl)-1′-(methylcarbamoyl)spiro[indoline-3,3′-pyrrolidin]-5-yl)butanoate]
14 | 474% | CNC(=O)CCNC(=O)N1CCC2(C1)CN(C(=O)Nc1ncc(Cl)s1)c1ccc(Cl)cc12 (stereo not shown) [Example 465, 5-Chloro-N1-(5-chlorothiazol-2-yl)-N1′-(3-(methylamino)-3-oxopropyl)spiro[indoline-3,3′-pyrrolidine]-1,1′-dicarboxamide]
15 | 752% | COCCCN(Cc1ccccc1)S(=O)(=O)c1ccc2c(c1)C1(CCN(C(C)=O)C1)CN2C(=O)Nc1nc2ccc(OC)nc2s1 (stereo not shown) [Example 289, 1′-Acetyl-5-(N-benzyl-N-(3-methoxypropyl)sulfamoyl)-N-(5-methoxythiazolo[5,4-b]pyridin-2-yl)spiro[indoline-3,3′-pyrrolidine]-1-carboxamide]
16 | 597% | COc1ccc2nc(NC(=O)N3CC4(CCN(C(C)=O)C4)c4cc(S(=O)(=O)NCc5ccccc5OC)ccc43)sc2n1 (stereo not shown) [Example 263, 1′-Acetyl-5-(N-(2-methoxybenzyl)sulfamoyl)-N-(5-methoxythiazolo[5,4-b]pyridin-2-yl)spiro[indoline-3,3′-pyrrolidine]-1-carboxamide]
17 | 420% | COC(=O)N1CC[C@@]2(C1)CN(C(=O)Nc1nc3ccc(OC)nc3s1)c1ccc(S(=O)(=O)N(CCCC(=O)O)Cc3ccccc3)cc12 [Example 342, (S)-4-(N-benzyl-1′-(methoxycarbonyl)-1-((5-methoxythiazolo[5,4-b]pyridin-2-yl)carbamoyl)spiro[indoline-3,3′-pyrrolidin]-5-ylsulfonamido)butyric acid]
18 | 530% | COC(=O)N1CCC2(C1)CN(C(=O)Nc1ncc(SCCCNC(C)=O)s1)c1ccc(Cl)cc12 (stereo not shown) [Example 177, methyl 1-((5-((3-acetamidopropyl)thio)thiazol-2-yl)carbamoyl)-5-chlorospiro[indoline-3,3′-pyrrolidine]-1′-carboxylate]
19 | 411% | COC(=O)N1CCC2(C1)CN(C(=O)Nc1ncc(SCC(=O)N(C)C)s1)c1ccc(Cl)cc12 (stereo not shown) [Example 131, methyl 5-chloro-1-((5-((2-(dimethylamino)-2-oxoethyl)thio)thiazol-2-yl)carbamoyl)spiro[indoline-3,3′-pyrrolidine]-1′-carboxylate]
20 | 514% | COC(=O)N1CCC2(C1)CN(C(=O)Nc1ncc(SCCCO)s1)c1ccc(Cl)cc12 (stereo not shown) [Example 161, Methyl 5-chloro-1-((5-((3-hydroxypropyl)thio)thiazol-2-yl)carbamoyl)spiro[indoline-3,3′-pyrrolidine]-1′-carboxylate]
21 | 886% | COC(=O)N1CC[C@@]2(C1)CN(C(=O)Nc1ncc(Cl)s1)c1ccc(Cl)cc12 [Example 351, (S)-methyl 5-chloro-1-((5-chlorothiazol-2-yl)carbamoyl)spiro[indoline-3,3′-pyrrolidine]-1′-carboxylate]
22 | 678% | COC(=O)N1CCC2(C1)CN(C(=O)Nc1ncc(Cl)s1)c1ccc(Br)cc12 (stereo not shown) [Example 13, Methyl 5-bromo-1-((5-chlorothiazol-2-yl)carbamoyl)spiro[indoline-3,3′-pyrrolidine]-1′-carboxylate]
